Usually Emax stands for the greatest response seen or fitted, relative to the assay's reference.

Each structure is given as a SMILES string.

For one experiment, the system named is KOR. Set-up: method as in PMID 14718611. Conditions: [3H]bremazocine as radiolabeled ligand; cited from earlier work.
The target in the next experiment is T1, human KOR (Homo sapiens, UniProt P41145).
T1 construct: expressed in transfected cells; host or cells: CHO cells expressing hKOR (membranes), according to the assay names of the earlier reading
Description: biochemical. Conditions: read-out: Emax ± SEM.

T1 sequence (P41145 whole entry): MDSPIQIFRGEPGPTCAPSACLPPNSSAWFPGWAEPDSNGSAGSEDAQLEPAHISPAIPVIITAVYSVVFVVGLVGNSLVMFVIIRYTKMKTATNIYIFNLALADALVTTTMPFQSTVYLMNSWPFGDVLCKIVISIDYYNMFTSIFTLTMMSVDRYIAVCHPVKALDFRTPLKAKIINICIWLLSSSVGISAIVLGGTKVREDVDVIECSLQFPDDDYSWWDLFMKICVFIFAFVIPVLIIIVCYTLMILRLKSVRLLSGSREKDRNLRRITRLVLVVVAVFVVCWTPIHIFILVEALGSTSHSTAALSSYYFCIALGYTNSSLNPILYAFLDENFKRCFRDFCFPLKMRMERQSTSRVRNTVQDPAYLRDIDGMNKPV

In the case of `COC(=O)[C@@H]1C[C@H](O)C(=O)[C@H]2[C@@]1(C)CC[C@H]1C(=O)O[C@H](c3ccoc3)C[C@]21C` [Compound 2a, salvinorin B], in the experiment on KOR, the “activity at the KOR (in words), early report” value is “inactive”.
Take `COC(=O)C1CC(O)C(=O)C2C1(C)CCC1C(=O)OC(c3ccoc3)CC12C` (stereo not drawn) [Compound 2b, 8-epi-salvinorin B]: the Emax at human KOR stood at 90 ± 2%.
